Data taken from patent US10328114B2, “Lung injury repair compositions and methods” (University of Iowa Research Foundation, priority 2015, dated 2019).
“Also recorded” adds a separate entry of the source. Read-outs that look alike come from different tables or passages of the source. *: point of attachment. Myristoyl = CCCCCCCCCCCCCC(=O)*

Experiments:
mouse DLEP α6β4^+ cells = assay: Isolated DLEP α6β4+ cell colony assay (Example 3); format: cell-based; conditions: PKCζi 10 μM, 2 weeks, 20% BALF from week 1 bleomycin injured mice
Method: Isolated mouse DLEP α6β4^+ cells in the presence of 20% of BALF from week 1 mice injured with bleomycin were treated with PKCζi (10 μM) for 2 weeks. At week 3 the colonies derived from cre-GFP (lox-tm-TR/GFP) for surfactant protein C (SPC)/Tomato red with hydroxy-tamoxifen were exposed in order to trace the differentiation of β4^+ colonies into SPC^+ cells.

[1] = tested on: BALF isolated cells from bleomycin treated mice; assay: ROS production (extracellular H2O2) of BALF cells, p-hydroxyphenylacetate method; format: in vivo, mouse; conditions: week 1 post initial instillation
Method: (§1) Animal protocols were approved by the Institutional Animal Care and Use Committee at the University of Iowa. C57BL/6 mice (Jackson Laboratories, Bar Harbor, Me.) were anesthetized followed by intratracheal instillation of: (A) Control (Ctrl): 1 μl of DMSO (Sigma, St. Louis, Mo.) plus 49 μl of PBS; (B) Bleomycin (Bleo): 1 μl of DMSO plus 49 μl of bleomycin (APP pharmaceuticals, LLC Schaumburg, Ill.) dissolved in PBS (4 U/kg); (C) Bleomycin/PKCζi (Bleo/PKCζi): 1 μg of PKCζi (Calbiochem EMD Biosciences, San Diego, Calif.) solubilized in 1 μl of DMSO plus 49 μl of bleomycin (4 U/Kg) dissolved in PBS (Calbiochem EMD Biosciences, San Diego, Calif.). After this treatment, all mice were instilled (50 μl) every 72 hours with 1 μl of DMSO plus 49 μl of PBS in the Ctrl and Bleo group or with 1 μg of PKCζi dissolved in 1 μl of DMSO plus 49 μl of PBS in the Bleo/PKCζi group for the duration of the experiment. Mice were treated for up to 6 weeks (FIG. 1A). All conditions had between 4 to 6 animals.
BALF cells from week 1 post initial instillation were determined by the p-hydroxyphenylacetate method as reported previously (25).

[2] = tested on: bleomycin induced ALI mouse model; assay: Lung collagen deposition (hydroxyproline assay, Masson's trichrome) in bleomycin ALI model; format: in vivo; conditions: for lung fibrosis / lung injury resolution, biochemical and histological evidence: active TGF β, hydroxyproline, Masson staining
Method: as §1
The collagen content in the lung homogenates was determined with a hydroxyproline assay, as described previously (26). In addition, lung collagen deposition was examined in lung sections stained with Masson's trichrome.

PKCζ = biological target: T1, PKCζ (Mus musculus, UniProt Q02956); assay: PKCζ activation (p-PKCζ) in lungs, bleomycin induced ALI mouse model, Western blot and immunofluorescence; format: in vivo; conditions: for activation of PKC-ζ in vivo: lungs harvested at 1, 3 and 6 weeks, Western blot and immunofluorescence
T1 construct: from tissue; host or cells: lungs of C57BL/6 mice (lung homogenates and frozen lung sections)
T1 sequence (Q02956 1-592): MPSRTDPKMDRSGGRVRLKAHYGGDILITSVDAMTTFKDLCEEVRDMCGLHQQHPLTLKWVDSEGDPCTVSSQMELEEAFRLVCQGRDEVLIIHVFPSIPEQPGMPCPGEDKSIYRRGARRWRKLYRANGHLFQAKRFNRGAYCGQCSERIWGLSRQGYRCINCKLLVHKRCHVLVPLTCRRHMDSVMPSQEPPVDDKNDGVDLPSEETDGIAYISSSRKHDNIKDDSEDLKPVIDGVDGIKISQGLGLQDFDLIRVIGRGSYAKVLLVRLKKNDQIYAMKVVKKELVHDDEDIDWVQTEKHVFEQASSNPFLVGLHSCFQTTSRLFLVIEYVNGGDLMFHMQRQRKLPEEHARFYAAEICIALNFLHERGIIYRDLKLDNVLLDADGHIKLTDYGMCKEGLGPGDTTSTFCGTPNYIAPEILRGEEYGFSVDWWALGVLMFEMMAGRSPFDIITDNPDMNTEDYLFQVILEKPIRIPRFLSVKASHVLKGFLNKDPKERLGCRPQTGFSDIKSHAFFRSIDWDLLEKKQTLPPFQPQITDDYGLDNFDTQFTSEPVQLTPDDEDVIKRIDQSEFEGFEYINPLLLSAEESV
Method: Mice were randomly divided into four groups: (i) control: PBS plus DMSO (1 μl/mouse) (ii) PKC-ζ pseudosubstrate inhibitor (PKC-ζ ps) (1 μg/mouse suspended in DMSO), a pharmacological inhibitor that competes for the pseudosubstrate domain which give specificity to several PKCζ isoforms (Hofmann, J. (1997). “The potential for isoenzyme-selective modulation of protein kinase C.” FASEB J 11(8): 649-669); (iii) bleomycin: bleomycin suspended in PBS (4 U/kg); and (iv) Bleomycin+PKCζi: bleomycin (4 U/kg) plus (1 μg/mouse) PKCζi. The above conditions were administered intratracheally (50 μL) to 6-8 wk-old mice after 2-5 min of anesthesia with 4% isoflurane via a precision Fortec vaporizer (Cyprane, Keighley, UK). Treatment with DMSO or PKCζi was administered every 72 hours and followed for up to 6 weeks. At 1, 3, and 6 weeks mice were euthanized and lungs harvested.
as §1
Western blot analysis was performed using Phospho-(Ser) PKCζ substrate rabbit monoclonal antibody (Cell Signaling, Beverly, Mass.), total PKCζ rabbit polyclonal antibody (Santa Cruz Biotechnology, Dallas, Tex.) and mature surfactant protein C (SPC) rabbit polyclonal antibody (Seven Hill Bioreagents, Cincinnati, Ohio).
(§2) After dissection, immunofluorescence labeling was performed on frozen mouse lung tissue sections with polyclonal anti p-PKCζ (Santa Cruz Biotechnology, Dallas, Tex.) or monoclonal β4 antibody (Clone 346-11a, BD Biosciences, San Jose, Calif.) (23). In addition, Terminal deoxynucleotidyltransferase dUTP nick end labeling (TUNEL) staining was performed on week 1 mouse lung tissue sections (24).

[3] = tested on: isolated rat primary alveolar epithelial cells; conditions: hypoxia and diesel exhaust particle in vitro lung injury models, cited from earlier work
[4] = tested on: active transforming growth factor beta (TGFβ); assay: Active TGFβ ELISA in bleomycin ALI model; format: in vivo, mouse
Method: as §1
(§3) Mouse IL-1β and active transforming growth factor beta (TGFβ) were measured using an ELISA from R&D Biosystems (Minneapolis, Minn.).

[5] = tested on: bleomycin induced lung inflammation; assay: Lung inflammation and cell death in bleomycin ALI model (BALF cell and neutrophil count, IL-1β, TUNEL); format: in vivo, mouse
Method: as §1, §2
Bronchoalveolar lavage was performed as previously described (18). Total cell count was examined by hemocytometer and the percent of neutrophils cells in the bronchoalveolar lavage fluid (BALF) by cytospin slides stained with Wright's-Giemsa. Total protein concentration was measured by Bradford assay (Bio-Rad, Hercules, Calif.).
as §3

[6] = week 3 post injury, listed as PKC-ζi

N-Myristoyl-Ser-Ile-Tyr-Arg-Arg-Gly-Ala-Arg-Arg-Trp-Arg-Lys-Leu-OH (Myristoyl-SIYRRGARRWRKL-OH; SMILES CCCCCCCCCCCCCC(=O)N[C@@H](CO)C(=O)N[C@H](C(=O)N[C@@H](Cc1ccc(O)cc1)C(=O)N[C@@H](CCCNC(=N)N)C(=O)N[C@@H](CCCNC(=N)N)C(=O)NCC(=O)N[C@@H](C)C(=O)N[C@@H](CCCNC(=N)N)C(=O)N[C@@H](CCCNC(=N)N)C(=O)N[C@@H](Cc1c[nH]c2ccccc12)C(=O)N[C@@H](CCCNC(=N)N)C(=O)N[C@@H](CCCCN)C(=O)N[C@@H](CC(C)C)C(=O)O)[C@@H](C)CC) [PKCζi]
number of α6β4+ colonies (mouse DLEP α6β4^+ cells): increased the number of α6β4^+ colonies compared to control; also recorded: promotes proliferation DLEP α6β4^+ cells in vitro | ROS production / extracellular hydrogen peroxide (H2O2) of BALF cells [1]: does not reduce extracellular hydrogen peroxide (H2O2) in BALF isolated cells from bleomycin treated mice lung | ROS production / extracellular hydrogen peroxide (H2O2) of BALF cells ([1]; listed as PKC-ζi): did not prevent ROS production in bleomycin treated mice | collagen lung deposition by Masson's staining ([2]; FIG. 4C, printed as week 3): decreased collagen lung deposition by masson's staining at week 3 compared to bleomycin group | hydroxyproline content, PKCζi only during the first week ([2]; measured at week 6): increase hydroxyproline content similar to Bleomycin alone group at week 6 | histological lung collagen deposition ([2]; three weeks after bleomycin, Example 1): histological evidence of lung collagen deposition | lung hydroxyproline concentration ([2]; week 3 post injury): no difference in active TGF β and hydroxyproline concentrations compared to bleomycin group; also recorded: does not decrease hydroxyproline concentration | lung hydroxyproline concentration [2, 6]: high concentrations of hydroxyproline | lung fibrosis / lung injury resolution, biochemical and histological evidence ([2]; week 6): demonstrated lung injury resolution in the PKCζi treated group | lung fibrosis / lung injury resolution, biochemical and histological evidence ([2]; week 6, listed as PKC-ζi): total resolution of lung fibrosis in the PKC-ζi treated group | lung hydroxyproline concentration ([2]; week 6, continuous PKCζi treatment): decreased hydroxyproline concentration at week 6 compare to bleomycin group | activation of PKC-ζ in vivo (PKCζ): prevents activation of PKCζ in vivo | activation of PKC-ζ in vivo (PKCζ; listed as PKC-ζi): prevented the activation of PKC-ζ | p-PKCζ / total PKCζ, Western blot densitometry of lung homogenates (PKCζ; week 1, PKCζi 1 μg intratracheal every 72 hours, vs Bleo group): prevented bleomycin induced increased ratio p-PKC/total PKCζ; also recorded: decreased p-PKCζ at week 1 compared to Bleo group | p-PKCζ immunostaining intensity in lung (PKCζ; week 3 and 6, vs bleomycin group): did not have any increase in p-PKCζ at week 3; also recorded: decreased intensity in the Bleo/PKCζi group compared to bleomycin group at week 3 and 6 | alveolar epithelial barrier integrity [3]: prevents the disruption of the epithelial barrier in isolated rat primary alveolar epithelial cells | alveolar epithelial barrier integrity ([3]; listed as PKC-ζ inhibitor): preserves the alveolar epithelial barrier | active TGF β ([4]; week 3 post injury): no difference in active TGF β and hydroxyproline concentrations compared to bleomycin group; also recorded: does not prevent bleomycin induced TGF β activation | active TGF β [4, 6]: significantly elevated in both groups | active TGF β ([4]; week 6): prevents bleomycin induced active TGF β at week 6 | bleomycin induced inflammatory response ([5]; Example 1): did not prevent increase in inflammatory response | apoptotic cells by TUNEL+ staining ([5]; week 1 lung sections): did not prevent the increase in apoptotic cells by TUNEL^+ staining | BALF cell count ([5]; week 1 post injury): neither prevented the increase in BALF cell and neutrophil count | BALF neutrophil concentration / count ([5]; week 1 post injury): neither prevented the increase in BALF cell and neutrophil count; also recorded: does not decrease bleomycin induced increase in the BALF neutrophil concentration | IL-1β in BALF ([5]; week 1 post injury): nor prevented the increase in IL-1β concentration; also recorded: does not decrease IL-1β release into BALF
